Test results published in patent publication US20260306524A1, “Guanidinylated Amphiphilic Tobramycin Derivates and B-Lactam/B-Lactamase Inhibitor Combinations for Treatment of Pseudomonas Aeruginosa Infections” (University of Manitoba, priority 2023, published 2026).
Like-named read-outs stand apart in the source and are kept apart here.

Tests used:
[1] = Cell viability (cytotoxicity) assay, HEK293; assay type: cell-based, human; conditions: human, hek293 cells
Protocol: (§1) As an initial screening of the toxicity, the cell viability of the tobramycin derivatives was assessed in human embryonic kidney (HEK) 293 cell lines. Polymyxin B was utilized as […] and by being a membrane permeabilizing amphiphile resembling the tobramycin derivatives.
(§2) The cytotoxicity assay was conducted as previously described (24, 30). HEK293 cells were cultured in flasks with Dulbecco's Modified Eagle's Medium (DMEM) supplemented with 10% fetal bovine serum. The cells were incubated at 5% CO2 in a humidified atmosphere at 37° C. 50 μL of media containing approximately 8000 cells were added to designated wells in a 96-well plate. The wells containing only media with no cells served as blanks. The plate was incubated for 24 h. A volume of 50 μL of doubled the final desired concentrations of the agent were subsequently added to the experimental and blank wells. After 48 h incubation, PrestoBlue reagent from Invitrogen (United States) was added to a final concentration of 10% (v/v) and plates were incubated for an additional 1 hour at 5% CO2. Fluorescence was measured with excitation and emission wavelengths of 560 and 590 nm, respectively, using the Molecular Devices (United States) SpectraMax M2 plate reader. Values from the blank wells were subtracted from the corresponding wells with cells. The cell viability relative to the controls with vehicle was calculated. The plots indicate the mean±standard deviation of two experiments with five samples each.

HEK293 cells = test: Cell viability (cytotoxicity) assay, HEK293; assay type: cell-based, human; conditions: for cell viability compared to 1: HEK293, up to 600 μM; for cell viability compared to non-guanidinylated counterpart: HEK293, higher concentrations
Protocol: as §1, §2

P. aeruginosa PAO1 [2] = test: Checkerboard synergy with β-lactam antibiotics, PAO1; assay type: cell-based, Pseudomonas aeruginosa; conditions: for active concentration: equivalent to 6 μM
Protocol: After establishing the MIC of the tobramycin derivatives, the ability of these adjuvants to synergize with BL antibiotics was investigated against P. aeruginosa PAO1. The checkerboard assays were conducted as previously described and in accordance with the CLSI guidelines (37). Synergy was defined by at least a 4-fold reduction in the MICs of both adjuvant and antibiotic. The panel of antibiotics are comprised of commonly used antipseudomonal agents and represent the different BL subclasses—cephalosporin (ceftazidime), monobactam (aztreonam), penicillin (piperacillin) and carbapenems (imipenem and meropenem) (12).
The checkerboard assay was conducted as previously described (61). The bacterial solution was prepared as described in the broth microdilution method. The antibiotic of interest was serially diluted two-fold along the x-axis, and the adjuvant is serially diluted two-fold along the y-axis in a 96-well plate. Equal volumes of bacterial solution were added to the designated wells. The first row and columns are used to verify the MIC of the antibiotic and adjuvant, respectively. The well containing only broth served as negative control, while the well containing the broth and bacterial solution served as positive control. The plate was then incubated at 37° C. for 18 hours. After incubation, Molecular Devices (United States) Emax Plus microplate reader was used to measure the OD at a wavelength of 590 nm. Synergy was determined by at least a 4-fold reduction of the MIC of both agents.

[3] = system: MDR clinical isolates of P. aeruginosa; test: MIC against MDR clinical isolates; assay type: cell-based; conditions: Pseudomonas aeruginosa, 18 h; all MDR strains tested, alone
Protocol: The synergism of the guanidinylated amphiphilic tobramycin derivatives with ceftazidime, aztreonam and piperacillin against PAO1 prompted further investigation against MDR clinical isolates of P. aeruginosa. Prior to the checkerboard assays, the MICs of 5 and 8 were determined to be >128 μg/mL against all strains tested.
All antibiotics were purchased from commercial sources. Bacterial isolates were obtained from the American Type Culture Collection (ATCC), and from the Canadian National Intensive Care Unit (CAN-ICU) (59) and Canadian Ward (CANWARD) surveillance studies (60). CAN-ICU and CANWARD clinical isolates were collected from patients with presumed infectious diseases admitted in participating Canadian medical centers either to the intensive care unit or medical wards. Prior to microbiological testing, bacterial cultures were grown overnight in lysogeny broth (LB) at 37° C., shaking at 250 rpm.
(§3) The broth microdilution assay was performed in accordance with standard protocols as previously described (61). […] After incubation, Molecular Devices (United States) Emax Plus microplate reader was used to measure the optical density (OD) at a wavelength of 590 nm to confirm the turbidity. The minimum inhibitory concentration (MIC) was determined as the lowest concentration that inhibited visible bacterial growth.

P. aeruginosa PAO1 [4] = test: Potentiation of rifampicin, PAO1; assay type: cell-based, Pseudomonas aeruginosa
Text: Another evidence of OM permeabilization is the ability of the guanidinylated amphiphilic tobramycin derivatives to synergize with membrane-impermeable antibiotics such as rifampicin. 5 and 8 potentiated rifampicin by 16- and 64-fold, respectively, against PAO1. Rifampicin has limited capacity in crossing the OM of Gram-negative bacteria, and is restricted to treating infections caused by Mycobacteria and Gram-positive cocci (48). Unlike the BL antibiotics that permeate the OM through a porin-mediated uptake, the large molecular weight and hydrophobicity of rifampicin make it unable to enter the narrow porins, and rely on slow passive diffusion to traverse the lipid bilayer (49). Therefore, the augmented potency of rifampicin against P. aeruginosa is linked to its increased intracellular concentration through OM destabilization.
(§4) The checkerboard assay was conducted as previously described (61). The bacterial solution was prepared as described in the broth microdilution method. The antibiotic of interest was serially diluted two-fold along the x-axis, and the adjuvant is serially diluted two-fold along the y-axis in a 96-well plate. Equal volumes of bacterial solution were added to the designated wells. […] After incubation, Molecular Devices (United States) Emax Plus microplate reader was used to measure the OD at a wavelength of 590 nm. […]

[5] = system: β-lactamase harboring P. aeruginosa isolates; test: Checkerboard dual and triple combinations, β-lactamase harboring isolates; assay type: cell-based, Pseudomonas aeruginosa; conditions: checkerboard assays
Text: (§5) Since the main resistance mechanism against BL antibiotics is the hydrolysis by β-lactamase enzymes (46), it is imperative that the synergy evaluation is extended to P. aeruginosa strains containing these enzymes. Based on the results of the checkerboard assays against the MDR strains, the synergy of 5 and 8 with ceftazidime and aztreonam was further assessed against β-lactamase harboring P. aeruginosa isolates. These strains are characterized by their increased susceptibility to ceftazidime with the addition of avibactam. In addition, a triple combination therapy consisting of the tobramycin derivative, either BL antibiotic and avibactam was also investigated.
as §4, with “wells. The first row and columns are used to verify the MIC of the antibiotic and adjuvant, respectively.” for “wells.”

PA 86052 = test: Time-kill kinetics assay, PA 86052; assay type: cell-based, Pseudomonas aeruginosa
Protocol: (§6) To elucidate the mechanistic killing of the triple combination studies, the time-kill kinetics assay was performed as previously described (32). […] 8 μg/mL of ceftazidime and 2 μg/mL avibactam were used to reflect the clinically used 4:1 ratio.
(§7) Time-kill curve analyses were performed as previously described (32). An inoculum of the culture was then diluted in 0.85% saline solution to attain 0.5 McFarland turbidity. The inoculum was further diluted in lysogeny broth (LB) containing different antibiotic and adjuvant concentrations. The culture tubes were incubated at 37° C., shaking at 250 rpm. At specific time intervals, an aliquot was taken from each tube, serially diluted in sterile phosphate-buffered saline (PBS) and plated on LB agar plates. The plates were incubated at 37° C. overnight and the bacterial colonies were counted the subsequent day. The bactericidal or bacteriostatic activity was determined based on the decrease in CFU over the designated time period. Bactericidal activity corresponded to ≥3 log reduction in CFU/mL, while bacteriostatic activity corresponded to <3 log reduction in CFU/mL.

PA 107092 = test: Time-kill kinetics assay, PA 107092; assay type: cell-based, Pseudomonas aeruginosa
Protocol: as §6, §7

[6] = system: β-lactamase harboring P. aeruginosa isolates; test: MIC against β-lactamase harboring isolates; assay type: cell-based; conditions: Pseudomonas aeruginosa, 18 h
Text: as §5
as §3, with “(61). An inoculum of the culture was diluted in 0.85% saline solution to attain 0.5 McFarland turbidity. The inoculum was further diluted in Mueller-Hinton broth (MHB) for inoculation to a final concentration of 5×10^5 colony forming units/mL (CFU/mL). The agents were serially diluted two-fold in CA-MHB in a 96-well plate.” for “(61).”

In the case of `CCCCCCCCOC1C(OC2OC(CN)C(O)CC2N)C(N)CC(N)C1OC1OC(CO)C(O)C(N)C1O` (stereo not shown) [Compound 4, 5-O-(Octyl)-tobramycin], the viability at 48 h, 600 µM ([1]; HEK293, up to 600 μM) is reported as 86 to 101% and the “cell viability compared to 1” value (HEK293 cells) is reported as “comparable to 1”.
For `CCCCCCCCOC1C(OC2OC(CNC(=N)N)C(O)CC2NC(=N)N)C(NC(=N)N)CC(NC(=N)N)C1OC1OC(CO)C(O)C(NC(=N)N)C1O` (stereo not shown) [Compound 5, 5-O-(Octyl)-guanidinotobramycin], the active concentration (P. aeruginosa PAO1 [2]) was ~ 8 μg/mL, the MIC [3] was greater than 128 µg/mL and the “fold potentiation of rifampicin” value (P. aeruginosa PAO1 [4]) was 16 fold. For the same compound, the viability at 48 h, 600 µM ([1]; HEK293, 600 μM) was 63.8% and the “cytotoxicity compared to PMB” value (HEK293 cells; HEK293, 600 μM) was “comparable toxicity”.
In the case of `CCCCCCCCCCCCOC1C(OC2OC(CN)C(O)CC2N)C(N)CC(N)C1OC1OC(CO)C(O)C(N)C1O` (stereo not shown) [Compound 3], the cytotoxicity (HEK293 cells; HEK293, at 600 μM, relative to tobramycin) is reported as “highly toxic relative to tobramycin, causing cell death at 600 μM”.
With `NC[C@H]1O[C@H](O[C@H]2[C@H](OCc3ccc(-c4ccccc4)cc3)[C@@H](O[C@H]3O[C@H](CO)[C@@H](O)[C@H](N)[C@H]3O)[C@H](N)C[C@@H]2N)[C@H](N)C[C@@H]1O` [Compound 7, 5-O-(4-Methylbiphenyl)-tobramycin] the viability at 48 h, 600 µM ([1]; HEK293, up to 600 μM) was 86 to 101% and the “cell viability compared to 1” value (HEK293 cells) was “comparable to 1”.
In the case of `NCCCCCCCCOC1C(OC2OC(CN)C(O)CC2N)C(N)CC(N)C1OC1OC(CO)C(O)C(N)C1O` (stereo not shown) [Compound 6, 5-O-(8-Aminooctyl)-tobramycin], the “fold potentiation of ceftazidime” value (P. aeruginosa PAO1 [2]; PAO1, 8 μg/mL of adjuvant) is reported as 4 fold and the “cell viability at 600 μM compared to 4” value (HEK293 cells; HEK293, 600 μM) is reported as “lower in comparison to 4”.
In the case of `N=C(N)NC[C@H]1O[C@H](O[C@H]2[C@H](OCc3ccc(-c4ccccc4)cc3)[C@@H](O[C@H]3O[C@H](CO)[C@@H](O)[C@H](NC(=N)N)[C@H]3O)[C@H](NC(=N)N)C[C@@H]2NC(=N)N)[C@H](NC(=N)N)C[C@@H]1O` [Compound 8, 5-O-(4-Methylbiphenyl)-guanidinotobramycin], the active concentration (P. aeruginosa PAO1 [2]) is reported as ~ 8 μg/mL, the MIC [3] is reported as greater than 128 µg/mL and the “lowest concentration wherein synergy was observed” value [5] is reported as 8 µg/mL. The “log reduction in CFU/mL, triple combination” value (PA 86052; 8 μg/mL of 8, ceftazidime 8 μg/mL, avibactam 2 μg/mL, within 8 hours) was greater than 3 log, the “time to bactericidal effect, triple combination” value (PA 86052; 8 with ceftazidime/avibactam) was no more than 8 h and the “log reduction in CFU/mL, triple combination” value (PA 107092; 8 μg/mL of 8, ceftazidime 8 μg/mL, avibactam 2 μg/mL, at 4 hours) was 3 log. The “fold potentiation of rifampicin” value (P. aeruginosa PAO1 [4]) was 64 fold, the viability at 48 h, 600 µM ([1]; HEK293, 600 μM) was 79.8% and the selectivity ratio ([1]; HEK293, active concentration 8 μg/mL, read-out: non-cytotoxic concentration (600 μM, 848.04 μg/mL) as multiple of active concentration) was roughly 106. For the same compound, the “cytotoxicity up to approximately 106 times the active concentration” value (HEK293 cells; HEK293) was “non-cytotoxic”, the “cytotoxicity compared to PMB” value (HEK293 cells; HEK293, 600 μM) was “reduced cytotoxicity than PMB” and the “cell viability compared to non-guanidinylated counterpart” value (HEK293 cells) was “slight decrease in the cell viability”.
With `N=C(N)NC[C@H]1O[C@H](O[C@H]2[C@H](O)[C@@H](O[C@H]3O[C@H](CO)[C@@H](O)[C@H](NC(=N)N)[C@H]3O)[C@H](NC(=N)N)C[C@@H]2NC(=N)N)[C@H](NC(=N)N)C[C@@H]1O` [Compound 2, guanidinylated tobramycin, reference compound] the “cell viability compared to non-guanidinylated counterpart” value (HEK293 cells) was “slight decrease in the cell viability”.
In the case of `CC(C)(O/N=C(\C(=O)N[C@@H]1C(=O)N2C(C(=O)[O-])=C(C[n+]3ccccc3)CS[C@H]12)c1csc(N)n1)C(=O)O` [ceftazidime, reference compound], the MIC ([6]; all five β-lactamase harboring strains, read-out: MIC of ceftazidime monotherapy) is reported as 64 to 128 µg/mL, the “antibacterial effect over 24 h” value (PA 86052; 8 μg/mL ceftazidime, 2 μg/mL avibactam) is reported as “did not exhibit any antibacterial effect” and the “antibacterial effect over 24 h, monotherapy” value (PA 107092; 8 μg/mL ceftazidime) is reported as “ineffective”.
Work on `C[C@H]1[C@H](NC(=O)/C(=N\OC(C)(C)C(=O)O)c2csc(N)n2)C(=O)N1S(=O)(=O)O` [aztreonam] yielded an MIC ([6]; five β-lactamase harboring strains, read-out: MIC of aztreonam monotherapy) of 32 to 128 µg/mL.
With Polymyxin B [PMB, reference compound] the cell viability (HEK293 cells; HEK293, 600 μM, 2880 min) was 64.7%.
Work on `COc1cccc2c1C(=O)c1c(O)c3c(c(O)c1C2=O)C[C@@](O)(C(=O)CO)C[C@@H]3O[C@H]1C[C@H](N)[C@H](O)[C@H](C)O1` [Doxorubicin, reference compound] yielded a viability at 48 h, 125 µM ([1]; HEK293, 125 μM) of 0%.
